The numbers were not newly measured in patent publication US20220143119A1, “CROTON LECHLERI COMPOSITIONS FOR USE IN THE TREATMENT OF SKIN CANCER” (ALPHYN BIOLOGICS, LLC, priority 2019, published 2022), which cites them from elsewhere.

The test system of this series is human melanoma SK23.

SMILES strings stand for the structures.

`COc1ccc2c(=O)oc3c(OC)cc(CCN(C)C)c4c(=O)oc1c2c34` [taspine]: the “inhibition against human melanoma SK23” value was “exhibits inhibition”.
